The values that follow come from patent US20240101521A1, “DIAMINOTRIAZINE COMPOUNDS” (BASF SE, priority 2021, published 2024).

Common to all, as to assay: greenhouse pre-emergence herbicidal test
What all share (assay type): in vivo

One assay has as its system Amaranthus retroflexus. The note with it: scale 0 to 100. In short, it runs like this:
(§1)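 Spray application right after sowing of active ingredients suspended or emulsified in water, onto loamy sand with about 3.0% humus; pots covered with plastic hoods until rooted, kept at 10-25° C. or 20-35° C. depending on species. Damage scored 0-100 (100 = no emergence or complete aerial destruction) after 2 to 4 weeks.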

In another assay the test system is Lolium multiflorum. To be noted: pre-emergence, 62,5 g/ha, scale 0 to 100. In a few lines:
as §1

Another assay concerns Setaria faberi. To be noted: scale 0 to 100. In a few lines: as §1
The next assay concerns Echinochloa crus-galli. The note with it: scale 0 to 100. In short, it runs like this: as §1
The test system of the next assay is Abutilon theophrasti. To be noted: scale 0 to 100. In a few lines:
as §1

The subject of a further assay is Digitaria sanguinalis. The note with it: scale 0 to 100. In a few lines: as §1
The test system of another assay is Alopecurus myosuroides. The note with it: pre-emergence, 62,5 g/ha, scale 0 to 100. In short, it runs like this:
as §1

A further assay relates to Apera spica-venti. To be noted: 31 g/ha, scale 0 to 100. In a few lines:
as §1

Molecules are shown by their SMILES.

Consider `C#CCOc1c(Cl)cc(F)c(F)c1Nc1nc(N)nc(C2(F)CCCC2)n1` [Example 129], for which the herbicidal activity in the assay on Amaranthus retroflexus (pre-emergence, 62,5 g/ha) was found to be 95%; in the assay on Lolium multiflorum, 90%; with Setaria faberi (pre-emergence, 62,5 g/ha) it was 100%.

Consider `CC(C)(F)c1nc(N)nc(Nc2c(F)c(F)cc(F)c2OC/C=C/Br)n1` [Example 127], for which the herbicidal activity in the assay with Amaranthus retroflexus (pre-emergence, 62,5 g/ha) is 100%; in the assay on Lolium multiflorum it was 100%; with Setaria faberi (pre-emergence, 62,5 g/ha) it was 100%.

On to `COc1c(Cl)cc(C)c(F)c1Nc1nc(N)nc(C(C)(C)F)n1` [Example 3], for which the herbicidal activity stood at 100% in the assay on Echinochloa crus-galli (pre-emergence, 62,5 g/ha); 100% with Abutilon theophrasti (pre-emergence, 62,5 g/ha); 100% in the assay on Digitaria sanguinalis (pre-emergence, 62,5 g/ha).

Take `COc1c(Cl)c(F)c(F)c(F)c1Nc1nc(N)nc(C(C)(C)F)n1` [Example 148]: the herbicidal activity with Amaranthus retroflexus (pre-emergence, 62,5 g/ha) was determined as 100%; in the assay on Alopecurus myosuroides, 100%; with Lolium multiflorum it was 100%.

For the compound `CC(C)(F)c1nc(N)nc(Nc2c(F)c(F)cc(Br)c2OC/C=C/Cl)n1` [Example 124], the herbicidal activity in the assay on Amaranthus retroflexus (pre-emergence, 62,5 g/ha) is 100%; with Lolium multiflorum, 80%; in the assay on Setaria faberi (pre-emergence, 62,5 g/ha), 100%.

As for `C#CC(C)(F)c1nc(N)nc(Nc2c(F)c(F)cc(Br)c2OC)n1` (stereo not drawn) [Example 115], the herbicidal activity in the assay on Amaranthus retroflexus (pre-emergence, 62,5 g/ha) is recorded as 100%; with Alopecurus myosuroides it was 98%; in the assay on Abutilon theophrasti (pre-emergence, 62,5 g/ha), 90%.

As to `COc1c(Cl)c(F)c(F)c(F)c1Nc1nc(N)nc(C(C)(C)OC)n1` [Example 174], the herbicidal activity in the assay on Amaranthus retroflexus (pre-emergence, 62,5 g/ha) is given as 100%; in the assay on Alopecurus myosuroides, 98%; in the assay on Lolium multiflorum, 100%.

As for `CC(C)(F)c1nc(N)nc(Nc2c(F)c(F)cc(Cl)c2OC/C=C/Br)n1` [Example 125], the herbicidal activity came to 100% in the assay on Amaranthus retroflexus (pre-emergence, 62,5 g/ha); 100% in the assay with Lolium multiflorum; 100% with Setaria faberi (pre-emergence, 62,5 g/ha).

With `COc1c(Cl)ccc(F)c1Nc1nc(N)nc(C(C)(C)F)n1` [Example 2], the herbicidal activity with Echinochloa crus-galli (pre-emergence, 62,5 g/ha) was found to be 100%; with Abutilon theophrasti (pre-emergence, 62,5 g/ha) it was 100%; in the assay with Digitaria sanguinalis (pre-emergence, 62,5 g/ha), 100%.

For `COc1c(Br)ccc(F)c1Nc1nc(N)nc(C2(F)CCCCC2)n1` [Example 5], the herbicidal activity in the assay on Echinochloa crus-galli (pre-emergence, 250 g/ha) is 85%; in the assay on Abutilon theophrasti (pre-emergence, 250 g/ha), 90%; with Digitaria sanguinalis (pre-emergence, 250 g/ha) it was 100%.

`CC(C)(F)c1nc(N)nc(Nc2c(F)c(F)cc(F)c2OC/C=C/Cl)n1` [Example 126]: the herbicidal activity was 100% in the assay with Amaranthus retroflexus (pre-emergence, 62,5 g/ha); 100% in the assay on Lolium multiflorum; 100% in the assay on Setaria faberi (pre-emergence, 62,5 g/ha).

Turning to `CC#CC(C)Oc1c(F)cc(F)c(F)c1Nc1nc(N)nc(C2(F)CCCC2)n1` (stereo not drawn) [Example 104], the herbicidal activity in the assay with Echinochloa crus-galli (pre-emergence, 62,5 g/ha) is reported as 100%; in the assay on Abutilon theophrasti (pre-emergence, 62,5 g/ha), 100%; with Lolium multiflorum, 100%.

Regarding `CC#CC(Oc1c(F)cc(F)c(F)c1Nc1nc(N)nc(C(C)(C)F)n1)C1CC1` (stereo not drawn) [Example 119], the herbicidal activity with Amaranthus retroflexus (pre-emergence, 62,5 g/ha) was found to be 85%; in the assay on Lolium multiflorum, 70%; with Setaria faberi (pre-emergence, 62,5 g/ha) it was 85%.

Consider `COc1c(Cl)cc(Cl)c(F)c1Nc1nc(N)nc(C2(F)CCCC2)n1` [Example 60], for which the herbicidal activity in the assay on Amaranthus retroflexus (pre-emergence, 31 g/ha) is listed as 100%; in the assay on Apera spica-venti, 95%; in the assay on Setaria faberi (pre-emergence, 31 g/ha), 98%.

Turning to `COc1c(Br)ccc(F)c1Nc1nc(N)nc(C(C)(C)F)n1` [Example 4, N4-(3-bromo-6-fluoro-2-methoxy-phenyl)-6-(1-fluoro-1-methyl-ethyl)-1,3,5-triazine-2,4-diamine], the herbicidal activity in the assay on Echinochloa crus-galli (pre-emergence, 62,5 g/ha) was determined as 100%; in the assay on Abutilon theophrasti (pre-emergence, 62,5 g/ha), 100%; in the assay on Digitaria sanguinalis (pre-emergence, 62,5 g/ha), 100%.
